For series [1], the target named is T1, Galectin-8 (Homo sapiens, UniProt O00214).
T1 sequence (O00214 whole entry): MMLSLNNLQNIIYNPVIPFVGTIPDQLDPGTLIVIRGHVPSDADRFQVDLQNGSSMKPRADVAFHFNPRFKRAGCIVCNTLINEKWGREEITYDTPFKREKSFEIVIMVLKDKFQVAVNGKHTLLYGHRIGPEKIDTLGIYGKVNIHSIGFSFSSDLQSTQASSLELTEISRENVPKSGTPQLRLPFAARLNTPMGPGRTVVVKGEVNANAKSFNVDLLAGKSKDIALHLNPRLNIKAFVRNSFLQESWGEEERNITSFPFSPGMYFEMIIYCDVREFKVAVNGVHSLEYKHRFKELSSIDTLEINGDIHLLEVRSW
The series can be described thus: Binding affinity to C-terminal domain human Gal-8 expressed in Escherichia coli BL21 (DE3) cells by competitive fluorescence polarization assay. For orientation: In fluorescence polarisation assays a small probe gives low polarisation when free and higher when bound to something large.

In series [2] the target is T2, Galectin-3 (Homo sapiens, UniProt P17931). The series can be described thus: Binding affinity to human Gal-3 expressed in Escherichia coli BL21 (DE3) cells by competitive fluorescence polarization assay.
T2 sequence (P17931 whole entry): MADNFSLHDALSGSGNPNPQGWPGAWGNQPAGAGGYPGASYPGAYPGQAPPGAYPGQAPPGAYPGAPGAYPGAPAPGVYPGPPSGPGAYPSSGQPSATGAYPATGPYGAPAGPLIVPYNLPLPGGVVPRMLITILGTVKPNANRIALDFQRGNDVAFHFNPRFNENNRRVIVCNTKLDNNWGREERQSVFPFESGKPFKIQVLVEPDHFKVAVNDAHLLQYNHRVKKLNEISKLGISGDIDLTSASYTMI
Series [3] concerns the target T3, Galectin-8 (Homo sapiens) (UniProt O00214).
T3 sequence (whole entry): T1 sequence (O00214 whole entry)
Description: Binding affinity to C-terminal domain human Gal-8 expressed in Escherichia coli BL21 (DE3) cells assessed as change in entropy by isothermal titration calorimetry analysis

Series [4] concerns the target T2, Galectin-3.
Description: Binding affinity to human Gal-3 expressed in Escherichia coli BL21 (DE3) cells assessed as change in gibbs free energy by isothermal titration calorimetry analysis
Series [5] has as its target T1, Galectin-8. Briefly: Binding affinity to N-terminal domain human Gal-8 expressed in Escherichia coli BL21 (DE3) cells by competitive fluorescence polarization assay.
Series [6] concerns the target T3, Galectin-8 (Homo sapiens). The source holds these as a separate data set.
Description: Binding affinity to C-terminal domain human Gal-8 expressed in Escherichia coli BL21 (DE3) cells assessed as change in gibbs free energy by isothermal titration calorimetry analysis
Series [7] addresses T2, Galectin-3. The source holds these as a separate data set.
Description: Binding affinity to human Gal-3 expressed in Escherichia coli BL21 (DE3) cells assessed as change in enthalpy by isothermal titration calorimetry analysis
Series [8] deals with T3, Galectin-8 (Homo sapiens). The source holds these as a separate data set.
Description: Binding affinity to C-terminal domain human Gal-8 expressed in Escherichia coli BL21 (DE3) cells assessed as change in enthalpy by isothermal titration calorimetry analysis
Series [9] addresses T1, Galectin-8. Briefly: Binding affinity to C-terminal domain human Gal-8 expressed in Escherichia coli BL21 (DE3) cells by isothermal titration calorimetry analysis. In general terms: In ITC the heat of successive injections is recorded.
In series [10] the target is T2, Galectin-3. This is another data set of the same source.
Description: Binding affinity to human Gal-3 expressed in Escherichia coli BL21 (DE3) cells assessed as change in entropy by isothermal titration calorimetry analysis
Series [11] has as its target T2, Galectin-3. Briefly: Binding affinity to human Gal-3 expressed in Escherichia coli BL21 (DE3) cells by isothermal titration calorimetry analysis.
In series [12] the target is Galectin-1 (Homo sapiens, UniProt P09382). Briefly: Binding affinity to human Gal-1 expressed in Escherichia coli BL21 (DE3) by competitive fluorescence polarization assay.
Chain of Galectin-1 (P09382 whole entry): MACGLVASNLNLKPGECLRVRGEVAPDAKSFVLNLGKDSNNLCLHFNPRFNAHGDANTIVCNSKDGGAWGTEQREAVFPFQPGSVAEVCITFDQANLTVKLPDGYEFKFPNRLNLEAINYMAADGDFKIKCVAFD
The nature of series [13]: Cytotoxicity against human MRC5 cells assessed as cell viability at 1 uM incubated for 24 hrs by MTT assay relative to control. In kind it is toxicity, cell-based. As to conditions: read-out: Activity. For orientation: Formazan colour is commonly taken as a measure of viable cells.
Series [14] has as its system MRC5. Briefly: Inhibition of cell migration in human MRC5 cells assessed as reduction in would closure at 1 uM incubated for 48 hrs by Giemsa staining based microscopic analysis relative to control. In kind it is toxicity.
The nature of series [15]: Cytotoxicity against human MRC5 cells assessed as cell viability at 10 uM incubated for 24 hrs by MTT assay relative to control. Type of series: toxicity, cell-based. The following applies: read-out: Activity.

In the case of `O=C(NS(=O)(=O)c1cc(Cl)c(Cl)s1)c1cc2cc(Oc3ccc(Cl)cc3Cl)ccc2[nH]1`, the Kd (in general, the concentration at which binding is half-saturated) in series [1] worked out at 19.3 µM; in series [2], 22.7 µM.
Taken in the same sequence, the figures for `O=C(NS(=O)(=O)c1cc(Cl)sc1Cl)c1cc2cc(Oc3ccc(Cl)c(Cl)c3)ccc2[nH]1` were 17.3 µM and 21.9 µM.
The like results for `O=C(NS(=O)(=O)c1ccc(Cl)cc1Cl)c1cc2c(Oc3ccc(F)cc3)cccc2[nH]1` were, in that order, 253 µM and 224 µM.
With `O=C(NS(=O)(=O)c1ccc2oc(=O)ccc2c1)c1cc2cc(Oc3ccc(Cl)c(Cl)c3)ccc2[nH]1`, the -TdeltaS in series [3] was -6.76 kcal/mol; in series [10], -2.94 kcal/mol. The deltaG in series [4] is -6.77 kcal/mol; in series [6], -7.77 kcal/mol. In addition, the dissociation constant (Kd) is > 300 µM in [5]; 2.01 µM in series [9]; 18.7 µM in series [1]; 11 µM in [11]; 10 µM in series [2]; 86.9 µM in [12]. The values for the deltaH in series [7] and in [8] were -3.82 kcal/mol and -1.01 kcal/mol, respectively.
On to `CCOC(=O)c1ccc(S(=O)(=O)NC(=O)c2cc3cc(Oc4ccc(Cl)c(Cl)c4)ccc3[nH]2)cc1`, for which the equilibrium dissociation constant (Kd) amounted to 228 µM in series [5], 17.5 µM in series [1], 17.1 µM in series [2] and 118 µM in series [12].
As to `CC(C)c1ccc(Oc2ccc3cc(C(=O)NS(=O)(=O)c4ccc(Cl)cc4Cl)[nH]c3c2)cc1`, binding in series [2] was put at a Kd of 784 µM.
In the case of `O=C(NS(=O)(=O)c1ccc(Cl)cc1Cl)c1cc2cc(Oc3ccc(F)cc3)ccc2[nH]1`, the figures for the equilibrium dissociation constant (Kd) in [1] and in [2] were 57 µM and 121 µM, respectively.
For `O=C(NS(=O)(=O)c1cc(F)c(F)c(F)c1)c1cc2cc(Oc3ccc(Cl)c(Cl)c3)ccc2[nH]1`, the Kd turned out to be 14.9 µM in [1] and 33 µM in [2].
As for `O=C(NS(=O)(=O)c1cc(Cl)c(Cl)s1)c1cc2cc(Oc3ccc(Br)c(Cl)c3)ccc2[nH]1`, the Kd was found to be 9.4 µM in [1] and 23.7 µM in [2].
For the compound `O=C(NS(=O)(=O)c1ccc(Cl)cc1Cl)c1cc2ccc(Oc3ccc(F)cc3)cc2[nH]1`, the dissociation constant (Kd) in [1] is 76.2 µM; in series [2] it was 303 µM.
In the case of `O=C(NS(=O)(=O)c1sc(Cl)cc1Cc1ccccc1)c1cc2cc(Oc3ccc(Cl)c(Cl)c3)ccc2[nH]1`, the Kd in series [1] came out at 5.6 µM; in [2] it was 35.9 µM; in series [12], 96.1 µM.
Regarding `O=C(NS(=O)(=O)c1cc(Cl)c(Cl)s1)c1cc2cc(Oc3cccc(Cl)c3Br)ccc2[nH]1`, the results for the Kd in series [1] and in series [2] were 19.2 µM and 27.3 µM, respectively.
For the compound `O=C(NS(=O)(=O)c1ccn(Cl)n1)c1cc2cc(Oc3ccc(Cl)c(Cl)c3)ccc2[nH]1`, the Kd in series [1] was found to be 57 µM; in [2], 76.9 µM.
Turning to `O=C(NS(=O)(=O)c1ccc([N+](=O)[O-])cc1)c1cc2cc(Oc3ccc(Cl)c(Cl)c3)ccc2[nH]1`, the Kd turned out to be 19.2 µM in series [1] and 30 µM in series [2].
For the compound `O=C(NS(=O)(=O)c1cc(Cl)c(Cl)s1)c1cc2cc(Oc3ccc(Cl)cn3)ccc2[nH]1`, the dissociation constant Kd was > 300 µM in series [1] and 212 µM in [2].
Taken in the same sequence, the figures for `COc1cccc(S(=O)(=O)NC(=O)c2cc3cc(Oc4ccc(Cl)c(Cl)c4)ccc3[nH]2)c1` were 17.7 µM and 39.2 µM.
The like results for `Cc1nc(Cl)sc1S(=O)(=O)NC(=O)c1cc2cc(Oc3ccc(Cl)c(Cl)c3)ccc2[nH]1` were, in that order, 20.3 µM and 31 µM.
Turning to `O=C(NS(=O)(=O)c1sccc1Cc1ccccc1)c1cc2cc(Oc3ccc(Cl)c(Cl)c3)ccc2[nH]1`, the viability at 24 h, 1 µM in series [13] was 97%. The -TdeltaS in series [3] was -5.47 kcal/mol; in series [10], -1.94 kcal/mol. For the same compound, in series [14], the inhibition (as a rule, the share of the control response that was lost under treatment) at 1 µM is 21%. Further, the deltaG was -6.68 kcal/mol in series [4] and -7.76 kcal/mol in series [6]. Also, the Kd in series [5] amounted to 203 µM; in series [9] it was 2.06 µM; in series [1], 12.5 µM; in series [11] it was 12.8 µM; in series [2], 22.7 µM; in series [12], 138 µM. Moreover, the deltaH in [7] was -4.74 kcal/mol; in series [8] it was -2.29 kcal/mol. Moreover, the viability at 24 h, 10 µM in series [15] was found to be 99%.
`O=C(NS(=O)(=O)c1ccc(Cl)cc1)c1cc2cc(Oc3ccc(Cl)c(Cl)c3)ccc2[nH]1`: the Kd in [1] is 18.1 µM; in series [2], 80.9 µM.
Regarding `CCOC(=O)c1ccc(S(=O)(=O)NC(=O)c2cc3cc(Oc4ccc(Cl)c(Cl)c4)ccc3n2C)cc1`, the dissociation constant (Kd) in series [5] is > 300 µM; in series [1], 16.1 µM; in [2] it was 36.5 µM; in series [12], > 500 µM.
Consider `Cc1noc(C)c1S(=O)(=O)NC(=O)c1cc2cc(Oc3ccc(Cl)c(Cl)c3)ccc2[nH]1`, for which the dissociation constant Kd in [1] worked out at 22.9 µM; in series [2], 74.2 µM.
Turning to `O=C(NS(=O)(=O)c1cc(Cl)c(Cl)s1)c1cc2cc(Oc3ccc(Cl)c(Cl)c3)ccc2o1`, the Kd was 9.6 µM in [1], 30.5 µM in series [2] and > 500 µM in series [12].
For `O=C(NS(=O)(=O)c1cc(Cl)c(Cl)s1)c1cc2cc(Oc3ccc(Br)cc3F)ccc2[nH]1`, the results for the dissociation constant Kd in series [1] and in series [2] were 7.3 µM and 27.1 µM, respectively.
Taken in the same sequence, the figures for `O=C(NS(=O)(=O)c1ccccn1)c1cc2cc(Oc3ccc(Cl)c(Cl)c3)ccc2[nH]1` were 41.8 µM and 210 µM.
On to `O=C(NS(=O)(=O)c1ccccc1)c1cc2cc(Oc3ccc(Cl)c(Cl)c3)ccc2[nH]1`, for which the Kd is 18.7 µM in [1] and 37.4 µM in series [2].
The like results for `O=C(O)c1ccc(S(=O)(=O)NC(=O)c2cc3cc(Oc4ccc(Cl)c(Cl)c4)ccc3[nH]2)cc1` were, in that order, 73 µM and 119 µM.
The like results for `O=C(NS(=O)(=O)c1ccc(F)cc1S(=O)(=O)C(F)(F)F)c1cc2cc(Oc3ccc(Cl)c(Cl)c3)ccc2[nH]1` were, in that order, 16 µM and 32.3 µM.
In turn, `CCOC(=O)c1ccc(S(=O)(=O)N(C)C(=O)c2cc3cc(Oc4ccc(Cl)c(Cl)c4)ccc3n2C)cc1` had a Kd in series [2] of 363 µM.
Take `O=C(NS(=O)(=O)c1cc(Cl)c(Cl)s1)c1cc2cc(Oc3ccc(Cl)cc3Br)ccc2[nH]1`: the dissociation constant (Kd) in series [1] is 14.1 µM; in [2] it was 24.9 µM.
Consider `O=C(NS(=O)(=O)c1cc(Cl)c(Cl)s1)c1cc2cc(Oc3ccc(Br)c(F)c3)ccc2[nH]1`, for which the dissociation constant Kd in series [1] came out at 8 µM; in series [2], 14.3 µM.
Turning to `O=C(NS(=O)(=O)c1ccc(OC(F)(F)F)cc1)c1cc2cc(Oc3ccc(Cl)c(Cl)c3)ccc2[nH]1`, the Kd in [1] came to 18.5 µM; in series [2] it was 15.5 µM.
For `O=C(NS(=O)(=O)c1ccccc1Cl)c1cc2cc(Oc3ccc(Cl)c(Cl)c3)ccc2[nH]1`, the figures for the Kd in series [1] and in series [2] were 16.4 µM and 24.9 µM, respectively.
`O=C(NS(=O)(=O)c1ccc(Cl)cc1Cl)c1cc2cc(Oc3ccc(Cl)c(Cl)c3)ccc2[nH]1`: the Kd in series [5] is > 300 µM; in series [1] it was 9.4 µM; in [2], 16 µM; in series [12], 43.7 µM.
For `O=C(NS(=O)(=O)c1cc(Cl)c(Cl)s1)c1cc2cc(Oc3ccc(Cl)c(Cl)c3)ccc2[nH]1`, the dissociation constant (Kd) in series [5] is > 300 µM; in series [1] it was 10.9 µM; in series [2] it was 20 µM; in series [12] it was 70.8 µM.
As to `O=C(NS(=O)(=O)Cc1noc2ccccc12)c1cc2cc(Oc3ccc(Cl)c(Cl)c3)ccc2[nH]1`, the Kd came to 24.6 µM in [1] and 321 µM in series [2].
Taken in the same sequence, the figures for `O=C(NS(=O)(=O)c1ccc2c(c1)OCC2)c1cc2cc(Oc3ccc(Cl)c(Cl)c3)ccc2[nH]1` were 15.5 µM and 20.1 µM.
Consider `O=C(NS(=O)(=O)c1ccc2ncsc2c1)c1cc2cc(Oc3ccc(Cl)c(Cl)c3)ccc2[nH]1`, for which the viability at 24 h, 1 µM in [13] came out at 95%. The -TdeltaS was -12 kcal/mol in [3] and -8.63 kcal/mol in [10]. In addition, in series [14], the inhibition at 1 µM amounted to 14%. In addition, the deltaG is -7.35 kcal/mol in series [4] and -7.12 kcal/mol in series [6]. Moreover, the dissociation constant Kd in series [5] is 210 µM; in series [9] it was 6.04 µM; in series [1], 8.3 µM; in series [11], 4.12 µM; in series [2], 7.6 µM; in series [12], 107 µM. The deltaH in series [7] stood at 1.28 kcal/mol; in series [8], 4.91 kcal/mol. For the same compound, the viability at 24 h, 10 µM in series [15] turned out to be 66%.
For `O=C(NS(=O)(=O)c1csc2ccccc12)c1cc2cc(Oc3ccc(Cl)c(Cl)c3)ccc2[nH]1`, the Kd in [1] is 8.2 µM; in series [2], 10.6 µM.

(Values after ChEMBL document CHEMBL5390211, “Discovery of N-Arylsulfonyl-Indole-2-Carboxamide Derivatives as Galectin-3 and Galectin-8 C-Terminal Domain Inhibitors” (ACS Med Chem Lett, 2023).)
